Experiments:
[1] = target: iNOS (Mus musculus, UniProt P29477); experiment: NOS inhibition, hemoglobin capture assay; assay type: biochemical; conditions: read-out: Ki iNOS; apparent Ki; recombinant enzyme; 10 µM L-arginine
[2] = tested on: blood pressure; conditions: cited from earlier work

Row | Structure (SMILES) | Ki [1] [µM] | effect on blood pressure [2]
1 | N=C(NCCC[C@H](N)C(=O)O)N[N+](=O)[O-] [L-NNA, L-N^ω-Nitroarginine] | 4.55 | –
2 | COC(=O)[C@@H](N)CCCNC(=N)N[N+](=O)[O-] [L-N^ω-nitroarginine methyl ester] | – | sharp increases in blood pressure
